Measurements as given in patent US20210084902A1, “FUNGICIDAL MIXTURE COMPRISING SUBSTITUTED 3-PHENYL-5-(TRIFLUOROMETHYL)-1,2,4-OXADIAZOLES” (BASF SE, priority 2017, published 2021).

Legend:
Assay type in all cases: cell-based
[1] = system: Botrytis cinerea; experiment: Fungicidal activity against Botrytis cinerea, micro titer plate (MTP) test; details: Botrytis cinerea, 168 h, component B alone, read-out: Observed efficacy
[2] = system: Septoria tritici; experiment: Fungicidal activity against Septoria tritici, micro titer plate (MTP) test; details: Zymoseptoria tritici, 168 h; Table V.4; component B alone, 0.000063 ppm; read-out: Observed efficacy
[3] = system: Colletotrichum orbiculare; experiment: Fungicidal activity against Colletotrichum orbiculare in the microtiterplate test; details: Colletotrichum orbiculare, read-out: Observed efficacy
[4] = system: Leptosphaeria nodorum; experiment: Fungicidal activity against Leptosphaeria nodorum, microtiter plate (MTP) test; details: Parastagonospora nodorum, 168 h, read-out: Observed efficacy
[5] = system: Pyricularia oryzae; experiment: microbe, parasite or virus in culture; details: Pyricularia oryzae, 168 h, read-out: Observed efficacy

Q: COC(=O)N(OC)c1ccccc1COc1ccn(-c2ccc(Cl)cc2)n1 [Pyraclostrobin, pyraclostrobin] was tested. Which inhibition of growth at 0.004 ppm ([1]; 0.004 ppm) did it give?
A: 0%

Q: And the inhibition of growth at […] ([1]; 0.016 ppm)?
A: 14%

Q: And the inhibition of growth at 6.3e-05 ppm [2]?
A: 21%

Q: And the inhibition of growth at 0.001 ppm ([3]; 0.001 ppm)?
A: 32%

Q: And the inhibition of growth at […] ([3]; 0.016 ppm)?
A: 60%

Q: And the inhibition of growth at […] ([4]; 0.00025 ppm)?
A: 22%

Q: What about the inhibition of growth at 0.004 ppm ([4]; 0.004 ppm) of the same compound?
A: 59%

Q: And the inhibition of growth at 0.001 ppm [5]?
A: 46%
